Test results: the NIST ThermoML archive (doi:10.1016/j.fluid.2008.10.003)

Test: isobaric coefficient of expansion; xn = mol fraction of the nth substance listed
Settings: 278.15 K, calorimetric method

CCCCCCO [hexan-1-ol] + CCCCCC
isobaric coefficient of expansion
Settings | 30000 kPa | 35000 kPa | 40000 kPa | 45000 kPa | 50000 kPa
x1 = 0.0321 | 0.00104 1/K | 0.00101 1/K | 0.000982 1/K | 0.000957 1/K | 0.000935 1/K
x1 = 0.041 | 0.00104 1/K | 0.00101 1/K | 0.000977 1/K | 0.000958 1/K | 0.000937 1/K
x1 = 0.0946 | 0.00102 1/K | 0.000997 1/K | 0.000967 1/K | 0.000942 1/K | 0.000925 1/K
x1 = 0.1679 | 0.000996 1/K | 0.000974 1/K | 0.000947 1/K | 0.000923 1/K | 0.000907 1/K
x1 = 0.2153 | 0.000979 1/K | 0.000958 1/K | 0.000928 1/K | 0.000909 1/K | 0.000892 1/K
x1 = 0.3016 | 0.000953 1/K | 0.000932 1/K | 0.000911 1/K | 0.000887 1/K | 0.000868 1/K
x1 = 0.4075 | 0.000921 1/K | 0.000903 1/K | 0.000877 1/K | 0.000859 1/K | 0.000844 1/K
x1 = 0.503 | 0.000893 1/K | 0.000876 1/K | 0.000851 1/K | 0.000835 1/K | 0.00082 1/K
x1 = 0.594 | 0.000864 1/K | 0.00085 1/K | 0.000831 1/K | 0.000804 1/K | 0.0008 1/K
x1 = 0.6827 | 0.00084 1/K | 0.000824 1/K | 0.000804 1/K | 0.000791 1/K | 0.000775 1/K
x1 = 0.8013 | 0.000806 1/K | 0.000784 1/K | 0.000769 1/K | 0.000756 1/K | 0.000745 1/K
x1 = 0.8934 | 0.000775 1/K | 0.000756 1/K | 0.000751 1/K | 0.000733 1/K | 0.000723 1/K
x1 = 1 | 0.000748 1/K | 0.000733 1/K | 0.000723 1/K | 0.000716 1/K | 0.000708 1/K
